Reference: US11786471B2, “Complex disintegrant system for oral solid preparation and oral solid preparation comprising said complex disintegrant system” (WUHAN LL SCIENCE AND TECHNOLOGY DEVELOPMENT CO., LTD., priority 2016, dated 2023)

Experiments:
[1] = system: spontaneously hypertensive rats; assay: Heart rate change in spontaneously hypertensive rats; assay type: in vivo, rat; details: SHR; for heart rate lowering effect compared with the corresponding unsalted compound: oral administration, result in words; for Heart rate change, 1 hour after administration (average ± standard error) / Heart rate change, 3 hours after administration (average ± standard error) / Heart rate change, 5 hours after administration (average ± standard error) / Heart rate change, 7 hours after administration (average ± standard error) / Heart rate change, 10 hours after administration (average ± standard error) / Heart rate change, 24 hours after administration (average ± standard error): intragastric, 1 mg/kg (calculated by effective dose of Azilsartan), relative to before administration
Protocol: (§1) 12-week-old spontaneously hypertensive rats (hereinafter referred to as SHR, purchased from Beijing Weitong Lihua Experimental Animal Technology Co., Ltd.) were anesthetized with 2.5% sodium pentobarbital for intraperitoneal injection. After that, the blood pressure sensing catheter of hypertension implant was inserted into their abdominal aorta, while the implant was fixed to the abdominal wall, and then postoperative daily care was performed after suturing. Rats with systolic blood pressure exceeding 160 mm Hg were divided into 3 groups (control group, QR01019 group and QR01019K group) wherein each group has 8 rats. The control group was administrated 0.5% sodium carboxymethylcellulose (hereinafter referred to as CMC-Na); QR01019 group and QR01019K group were respectively administered, both of which were dissolved by 0.5% CMC-Na, by intragastric administration, at a dose of 1 mg/kg (calculated by the effective dose of Azilsartan) and a volume calculated by 4 mL/kg. The systolic blood pressure and heart rate of SHR were compared before and after administration (the systolic blood pressure and heart rate of SHR before administration as reference value), which were detected three times at each time point with the average value recorded.

[2] = system: spontaneously hypertensive rats; assay: Antihypertensive efficacy test in spontaneously hypertensive rats: systolic blood pressure change; assay type: in vivo, rat; details: SHR; for antihypertensive effect compared with the corresponding unsalted compound: oral administration; for antihypertensive effect compared with the corresponding unsalted compound / systolic blood pressure compared with the control group: result in words; for systolic blood pressure compared with the control group: after 3 hours of administration; for Systolic blood pressure change, 1 hour after administration (average ± standard error) / Systolic blood pressure change, 3 hours after administration (average ± standard error) / Systolic blood pressure change, 5 hours after administration (average ± standard error) / Systolic blood pressure change, 7 hours after administration (average ± standard error) / Systolic blood pressure change, 10 hours after administration (average ± standard error) / Systolic blood pressure change, 24 hours after administration (average ± standard error): intragastric, 1 mg/kg (calculated by effective dose of Azilsartan), relative to before administration
Protocol: as §1

Row | SMILES | heart rate lowering effect compared with the corresponding unsalted compound [1] | antihypertensive effect compared with the corresponding unsalted compound [2] | other results
1 | CCOc1nc2cccc(C(=O)OCOC(=O)C(C)(C)C)c2n1Cc1ccc(-c2ccccc2-c2noc(=O)[n-]2)cc1.[K+] [QR01005K] | more potent and longer-lasting | more potent and longer-lasting | 
2 | CCOc1nc2cccc(C(=O)OCCCCO[N+](=O)[O-])c2n1Cc1ccc(-c2ccccc2-c2noc(=O)[n-]2)cc1.[K+] [QR01008K] | more potent and longer-lasting | more potent and longer-lasting | 
3 | CCOc1nc2cccc(C(=O)OCc3c(-c4ccccc4)no[n+]3[O-])c2n1Cc1ccc(-c2ccccc2-c2noc(=O)[n-]2)cc1.[K+] [QR01009K] | more potent and longer-lasting | more potent and longer-lasting | 
4 | CCOc1nc2cccc(C(=O)OCCCCOc3no[n+]([O-])c3S(=O)(=O)c3ccccc3)c2n1Cc1ccc(-c2ccccc2-c2noc(=O)[n-]2)cc1.[K+] [QR01011K] | more potent and longer-lasting | more potent and longer-lasting | 
5 | CCOc1nc2cccc(C(=O)OCc3oc(=S)oc3C)c2n1Cc1ccc(-c2ccccc2-c2noc(=O)[n-]2)cc1.[K+] [QR01013K] | more potent and longer-lasting | more potent and longer-lasting | 
6 | CCOc1nc2cccc(C(=O)OCOC(=O)OCc3nc(C)c(C)nc3C)c2n1Cc1ccc(-c2ccccc2-c2noc(=O)[n-]2)cc1.[K+] [QR01017K] | more potent and longer-lasting | more potent and longer-lasting | 
7 | CCOc1nc2cccc(C(=O)OC(C)OC(=O)OCc3nc(C)c(C)nc3C)c2n1Cc1ccc(-c2ccccc2-c2noc(=O)[n-]2)cc1.[K+] (stereo not drawn) [QR01019K] | more potent with a longer-lasting heart rate lowing effect | more potent with a longer-lasting antihypertensive effect | Heart rate change, 1 hour after administration (average ± standard error) [1]: −3.6 ± 2.4 times/minute; Heart rate change, 3 hours after administration (average ± standard error) [1]: −5.0 ± 2.5 times/minute; Heart rate change, 5 hours after administration (average ± standard error) [1]: −10.1 ± 3.0 times/minute; Heart rate change, 7 hours after administration (average ± standard error) [1]: −17.5 ± 3.0 times/minute; Heart rate change, 10 hours after administration (average ± standard error) [1]: −25.4 ± 2.4 times/minute; Heart rate change, 24 hours after administration (average ± standard error) [1]: −28.6 ± 8 times/minute; systolic blood pressure compared with the control group [2]: significantly decreased; Systolic blood pressure change, 1 hour after administration (average ± standard error) [2]: −7.0 ± 3.4 mmHg; Systolic blood pressure change, 3 hours after administration (average ± standard error) [2]: −34.3 ± 1.9 mmHg; Systolic blood pressure change, 5 hours after administration (average ± standard error) [2]: −46.5 ± 2.5 mmHg; Systolic blood pressure change, 7 hours after administration (average ± standard error) [2]: −49.4 ± 4.1 mmHg; Systolic blood pressure change, 10 hours after administration (average ± standard error) [2]: −45.3 ± 3.3 mmHg; Systolic blood pressure change, 24 hours after administration (average ± standard error) [2]: −25.9 ± 3.4 mmHg
8 | CCOc1nc2cccc(C(=O)OC(C)OC(=O)OCc3nc(C)c(C)nc3C)c2n1Cc1ccc(-c2ccccc2-c2noc(=O)[nH]2)cc1 (stereo not drawn) [QR01019] |  |  | Heart rate change, 1 hour after administration (average ± standard error) [1]: −3.4 ± 2.6 times/minute; Heart rate change, 3 hours after administration (average ± standard error) [1]: −2.33 ± 2.6 times/minute; Heart rate change, 5 hours after administration (average ± standard error) [1]: −6.5 ± 2.8 times/minute; Heart rate change, 7 hours after administration (average ± standard error) [1]: −6.2 ± 3.0 times/minute; Heart rate change, 10 hours after administration (average ± standard error) [1]: −12.3 ± 2.8 times/minute; Heart rate change, 24 hours after administration (average ± standard error) [1]: −6.7 ± 2.6 times/minute; systolic blood pressure compared with the control group [2]: significantly decreased; Systolic blood pressure change, 1 hour after administration (average ± standard error) [2]: −4.9 ± 4.8 mmHg; Systolic blood pressure change, 3 hours after administration (average ± standard error) [2]: −22.0 ± 3.6 mmHg; Systolic blood pressure change, 5 hours after administration (average ± standard error) [2]: −30.5 ± 3.5 mmHg; Systolic blood pressure change, 7 hours after administration (average ± standard error) [2]: −38.8 ± 2.3 mmHg; Systolic blood pressure change, 10 hours after administration (average ± standard error) [2]: −33.0 ± 1.7 mmHg; Systolic blood pressure change, 24 hours after administration (average ± standard error) [2]: −10.2 ± 2.1 mmHg
9 | CCOc1nc2cccc(C(=O)OCOC(=O)OCc3no[n+]([O-])c3C)c2n1Cc1ccc(-c2ccccc2-c2noc(=O)[n-]2)cc1.[K+] [QR01020K] | more potent and longer-lasting | more potent and longer-lasting | 
10 | CCOc1nc2cccc(C(=O)OCc3no[n+]([O-])c3C)c2n1Cc1ccc(-c2ccccc2-c2noc(=O)[n-]2)cc1.[K+] [QR01023K] | more potent and longer-lasting | more potent and longer-lasting | 
11 | CCOc1nc2cccc(C(=O)OCc3no[n+]([O-])c3C(C)(C)C)c2n1Cc1ccc(-c2ccccc2-c2noc(=O)[n-]2)cc1.[K+] [QR01026K] | more potent and longer-lasting | more potent and longer-lasting | 
12 | CCOc1nc2cccc(C(=O)OCOC(=O)OCc3ccno3)c2n1Cc1ccc(-c2ccccc2-c2noc(=O)[n-]2)cc1.[K+] [QR01030K] | more potent and longer-lasting | more potent and longer-lasting | 
13 | CCOc1nc2cccc(C(=O)OCOC(=O)OCc3cn(C)cn3)c2n1Cc1ccc(-c2ccccc2-c2noc(=O)[n-]2)cc1.[K+] [QR01031K] | more potent and longer-lasting | more potent and longer-lasting | 
14 | CCOc1nc2cccc(C(=O)OCOC(=O)OCc3ccn(C)c3)c2n1Cc1ccc(-c2ccccc2-c2noc(=O)[n-]2)cc1.[K+] [QR01032K] | more potent and longer-lasting | more potent and longer-lasting | 
15 | CCOc1nc2cccc(C(=O)OC(C)OC(=O)OCc3ccn(C)c3)c2n1Cc1ccc(-c2ccccc2-c2noc(=O)[n-]2)cc1.[K+] (stereo not drawn) [QR01033K] | more potent and longer-lasting | more potent and longer-lasting | 
16 | CCOc1nc2cccc(C(=O)OCc3no[n+]([O-])c3CO[N+](=O)[O-])c2n1Cc1ccc(-c2ccccc2-c2noc(=O)[n-]2)cc1.[K+] [QR01034K] | more potent and longer-lasting | more potent and longer-lasting | 
17 | CCOc1nc2cccc(C(=O)OC3CCc4c3no[n+]4[O-])c2n1Cc1ccc(-c2ccccc2-c2noc(=O)[n-]2)cc1.[K+] (stereo not drawn) [QR01035K] | more potent and longer-lasting | more potent and longer-lasting | 
18 | CCOc1nc2cccc(C(=O)OCc3no[n+]([O-])c3C#N)c2n1Cc1ccc(-c2ccccc2-c2noc(=O)[n-]2)cc1.[K+] [QR01036K] | more potent and longer-lasting | more potent and longer-lasting | 
